The target in experiment [1] is T1, MPYS (Mus musculus, UniProt Q3TBT3).
T1 construct: used to detect the endogenous MPYS complex in mouse splenocytes; endogenous in cells; host or cells: mouse splenocytes; K46 mouse B lymphoma cells; RAW264.7 mouse macrophage cells
T1 sequence (Q3TBT3 1-378): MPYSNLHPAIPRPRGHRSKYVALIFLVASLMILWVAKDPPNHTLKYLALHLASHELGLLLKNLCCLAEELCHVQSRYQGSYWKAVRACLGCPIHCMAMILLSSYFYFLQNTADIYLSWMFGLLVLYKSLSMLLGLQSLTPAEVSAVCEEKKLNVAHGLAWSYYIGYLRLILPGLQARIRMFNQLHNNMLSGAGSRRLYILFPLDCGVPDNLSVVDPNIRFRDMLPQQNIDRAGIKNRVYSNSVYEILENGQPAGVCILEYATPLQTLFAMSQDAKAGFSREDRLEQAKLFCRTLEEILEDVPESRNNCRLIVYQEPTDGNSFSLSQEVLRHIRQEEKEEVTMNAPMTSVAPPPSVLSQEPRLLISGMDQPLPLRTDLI
In words: MPYS oxidation (disulfide bonded homodimer, non-reducing SDS-PAGE). The experiment is classed as cell-based. The following applies: RAW264.7 cells. From the text:
(§1) It was also noticed that after the thiol reductase reaction, a large portion of MPYS occurs in a ˜80 kDa SDS resistant form consistent with the predicted size of a homodimer. The present inventors have shown that MPYS is dimeric in mouse B cells. To determine whether MPYS occurs as a non-disulfide-bonded dimer that becomes […] disulfide bonded upon oxidation, the chemical crosslinker Dithiobis[succinimidyl propionate] (DSP) was used to detect the endogenous MPYS complex in mouse splenocytes. In non-reducing SDS-PAGE, DSP treated MPYS ran as a single band of ˜80 kDa, the predicted size of a MPYS homodimer while non-DSP treated mock (or DTT treated) MPYS ran at the monomer size (˜40 kDa). It was also discovered that Flag-tagged MPYS associates with HA-MPYS when the two were co-expressed. Thus, the ˜80 kDa band seen on the non-reducing gels is a MPYS homodimer. Since this homodimer is sensitive to SDS, its dimerization is not mediated by intermolecular disulfide bonds.
(§2) The appearance of the SDS resistant MPYS homodimer after the thiol reductase reaction indicated the formation of intermolecular disulfide bonds in homodimeric MPYS is a consequence of oxidation. […] […] H2O2) and the thiol reductase reaction can lead to formation of intermolecular disulfide bonds in homodimeric MPYS.

For experiment [2], the system named is MPYS. Described as above. In kind it is cell-based. The following applies: ER stress inducer; cells not given.
Source text: as §1, §2

Experiment [3] relates to TLR4-293T cells. Kind of experiment: Measurement of intracellular ROS (H2DCFDA flow cytometry). In kind it is cell-based, human. The procedure:
Cells were washed and suspended in PBS, and then culture with H2DCFDA (5 μM) (Invitrogen, D399) for 20 min at 37° C. They were then washed in PBS and the fluorescence was measured by flow cytometry.

Experiment [4] concerns NFκB. In words: MPYS induced NFκB reporter activation in TLR4-293 cells. In kind it is cell-based, human. The following applies: TLR4-293T / TLR4-293GT cells. On the procedure: (§3) 293 GT cells and their derivatives (˜1×10^5) were seeded in 24-well dishes and transfected the following day using Effectene transfection reagent kit (Qiagen, cat #301427). Reporter assays were performed as previous described. Id.
(§4) Cells were seeded in 24-well dishes (˜1×10^5/ml) and transfected the following day using Effectene transfection reagent kit (Qiagen, 301427). Reporter assays were performed as previous described by Bin et al., in J Biol. Chem., 2003, 278, 24526-24532. All experiments were repeated at least three times and results are representative.

Experiment [5] relates to IFNβ promoter. In words: MPYS induced IFNβ reporter activation in TLR4-293 cells. In kind it is cell-based, human. The following applies: TLR4-293T / TLR4-293GT cells. On the procedure: as §3, §4
Experiment [6] has as its system RAW264.7 macrophage cells. In words: Listeria monocytogenes induced IFNβ response in RAW264.7 cells (IFNβ-luc). In kind it is cell-based, mouse. The procedure: RAW264.7, K46 B lymphoma cells and the 293GT cells were maintained in IMDM supplemented with 5% FBS. 293MT cells were maintained in DMEM (GIBCO, cat: 11965), 5% FBS (Biosource, 200p-500HI), sodium pyruvate (GIBCO 11360, 1 mM), HEPES buffer (GIBCO 15630-080, 10 mM) and 2-ME (50 μM) (Life Technologies, Gaithersburg Md.). The RAW264.7 cells stably expressing the IFNβ-Luciferase construct were generated by co-transfecting RAW264.7 cells with pGL3-IFNβ-Luciferase (Promega) and p-Puromycin plasmids (Clonetch). The stable cell line was established under puromycin selection (4 μg/ml).
RAW264.7 cells expressing the IFNβ-luc construct were infected with Listeria monocytogenes strain 10403S at multiplicity of five bacteria/cell. Cells were washed at 1 h after infection. Live bacterial were killed by addition of gentamicin. Whole cell lysates were prepared 5.5 h after infection. Luciferase activity was read with BD Monolight kit and Synergy reader.

For experiment [7], the system named is K46 B lymphoma cells. In words: MHC II mAb-induced cell death of K46 cells (Annexin V/PI, DiOC6/PI flow cytometry). In kind it is cell-based, murine. The settings on record: for effect of inhibitor on MHC II mAb-induced death response: K46 cells pre-treated with inhibitor. On the procedure:
K46 cells were suspended in 5% complete IMDM media at a concentration of 10^6 cells/mL and then transferred to round bottomed 96-well plates (100 μL/well) and cultured at 37° C. for 1 h. Biotinylated MHC II mAbs were added into the wells and incubated for 12 min. Avidin was then added into the wells and cells were cultured for the indicated time. PI (2 μg/mL) and Annexin V-Alexa Fluor 488 (1 μL/100 μL cells) (A-13201, Molecular Probes), or DiOC6 (50 nM) and PI (2 μg/mL) was used to measure apoptotic or dead cells by flow cytometry.
(§5) ERK inhibitor PD98059 (Calbiochem, 513000), AKT inhibitor LY294002 (Calbiochem, 440202), and p38 inhibitor SB203580 (Calbiochem, 559389) were used in this study. The inhibitor was added to cells at 5×10^6 cells/mL and cultured for 4 hrs. Samples were then split into 1×10^6 cells/mL and cell death was induced and measured as above. To inhibit src kinase, PP2 (Calbiochem, 529573) was added into cells and cultured for 30 min before cell death was induced as above.
For orientation: In flow cytometry, cells or beads pass a laser one at a time.

The test system of experiment [8] is ERK. Kind of experiment: MHC II induced ERK activation (phospho-ERK blotting). In kind it is cell-based, murine. The settings on record: K46 cells; PD98059 at 50 μM. The procedure: as §5
(§6) Cells were lysed in 0.33% CHAPS buffer (150 mM NaCl, 10 mM Tris pH 7.5, 10 mM sodium pyrophosphate, 2 mM Na3VO4, 10 mM NaF, 0.4 mM EDTA, 1 mM PMSF, and 1 μg/mL each of aprotinin, α1-antitrypsin, and leupeptin) (40×10^6/mL) at 4° C. for 1.5 h or overnight. Cell lysates were centrifuged at 12,000 g at 4° C. for 20 min. Supernatants were analyzed on a 10% SDS-PAGE gel. The gel was transferred to a PVDF membrane and proteins were probed with Abs and visualized using an ODYSSEY Infrared Imaging System (LI-COR). […]

Experiment [9] relates to calcium mobilization in K46 cells. In words: MHC II mAb-induced calcium mobilization (Indo-1AM). In kind it is cell-based, murine. The procedure:
Cells were loaded with Indo-1AM (Molecular Probes, Eugene, Oreg.) for 30 min at 37° C. as recommended by the manufacturer. Anti-MHC II mAb (10 μg/mL) was then added to the suspension for another 12 min at 37° C. before cells were washed and suspended in IMDM supplemented with 2% FCS. The cells (10^6 cells/mL) were analyzed before and after stimulation via cros slinking with avidin (20 μg/mL). Data were analyzed by Flow-Jo software (Tree Star, Inc., San Carlos, Calif.).
On the technique in general: A change in cytosolic calcium serves as a functional read-out for many receptors and channels.

In experiment [10] the test system is tyrosine phosphorylation in K46 cells. Kind of experiment: MHC II mAb-induced tyrosine phosphorylation (immunoblotting). In kind it is cell-based, murine. On the procedure: as §5, §6
In general terms: Immunoblotting shows a protein as a band on a membrane.

Regarding `OO` [H2O2], the “formation of oxidized MPYS” value in experiment [1] is listed as “led to the formation of oxidized MPYS”.
Still for that read-out and setting: the result for Poly(I:C) reads “did not generate oxidized MPYS”.
Regarding `C[C@H]1CCC/C=C/[C@@H]2C[C@H](O)C[C@H]2[C@H](O)/C=C/C(=O)O1` [Brefeldin A], in [2], the “formation of oxidized MPYS” value is reported as “generated oxidized MPYS”.
Consider `C=C(C)[C@H]1Cc2c(ccc3c2O[C@@H]2COc4cc(OC)c(OC)cc4[C@@H]2C3=O)O1` [rotenone], for which, in [3], the “cellular ROS level” value is recorded as “increased cellular ROS level”. In addition, in [4], the “effect on MPYS induced NFκB reporter activation” value is listed as “completely inhibited”. For the same compound, in experiment [5], the “effect on MPYS induced IFNβ reporter activation” value is reported as “completely inhibited”. Moreover, the “effect on Listeria monocytogenes induction of IFNβ production” value in [6] was “significantly inhibited”. Also, in experiment [1], the “formation of oxidized MPYS” value is “led to the formation of oxidized MPYS”.
As to `O=c1cc(N2CCOCC2)oc2c(-c3ccccc3)cccc12` [LY294002], the “effect of inhibitor on MHC II mAb-induced death response” value (“effect of inhibitor” for short) in experiment [7] is on record as “no significant effect”.
As for `COc1cccc(-c2cc(=O)c3ccccc3o2)c1N` [PD98059], the “effect on MHC II induced ERK activation” value in experiment [8] is “did not completely inhibit”. Moreover, the “inhibition of MHC II mediated cell death” value in [7] (inhibitor at 50 μM, K46 cells) is reported as “about 50%”.
On to `C[S+]([O-])c1ccc(-c2nc(-c3ccncc3)c(-c3ccc(F)cc3)[nH]2)cc1` (centres unmarked) [SB203580], for which the “effect of inhibitor” value in experiment [7] is given as “no significant effect”.
`CC(C)(C)n1nc(-c2ccc(Cl)cc2)c2c(N)ncnc21` [PP2]: in experiment [9], the “effect on MHC II mAb-induced calcium responses” value was “blocked”. In addition, the “effect on MHC II induced ERK activation” value in experiment [8] is given as “neither MHC class II-mediated activation of ERK nor apoptosis was inhibited”. For the same compound, the “effect on MHC II mAb-induced tyrosine phosphorylation” value in experiment [10] (K46 cells) is reported as “blocked”. Further, the “effect on MPYS tyrosine phosphorylation and recruitment of SHP-1 and SHIP-1” value in experiment [10] (after MHC class II aggregation) is “blocked”. For the same compound, in experiment [7], the “effect of inhibitor” value is recorded as “remained largely intact”.

The record behind these values is patent US20110212111A1, “MHC II Associated Protein and Uses Thereof” (priority 2008, published 2011).
